The numbers were not newly measured in PubChem BioAssay AID1259409 (Chemical Carcinogenesis Research Information System (CCRIS), 2018), which cites them from elsewhere.

This series relates to rodent chemically induced tumor inhibition, incidence and multiplicity. As to the kind of experiment: CCRIS tumor inhibitor studies. The conditions noted are these: Route [Inhibitor]: ORAL, Promoter: NONE USED.

The structures appear in SMILES notation.

For `CC1=C(/C=C/C(C)=C/C=C/C(C)=C\C(=O)O)C(C)(C)CCC1`, the “tumour outcome (control, treated, inhibition, significance)” value is 30/37 (81%), 26/34 (76%), 6%, not significant (Carcinogen: N-METHYL-N-NITROSOUREA, 684-93-5, Dose [Inhibitor]: 128 MG/KG DIET DAILY FOR 55 WK STARTING 1 WK AFTER LAST CARCINOGEN EXPOSURE (STUDY DURATION: 65 WK), Species: HAMSTER, Strain/Sex: SYRIAN/MALE, Target Tissue: Type of Lesion: TRACHEA: TUMOR, Dose [Carcinogen]: 1% FOR 7 SECONDS 2/WK FOR 9 WK); 24/40 (60%), 24/40 (60%), 0%, not significant (Carcinogen: N-METHYL-N-NITROSOUREA, 684-93-5, Dose [Inhibitor]: 172 MG/KG DIET DAILY FOR 55 WK STARTING 1 WK AFTER LAST CARCINOGEN EXPOSURE (STUDY DURATION: 67.5 WK), Species: HAMSTER, Strain/Sex: SYRIAN/MALE, Target Tissue: Type of Lesion: TRACHEA: TUMORS, Dose [Carcinogen]: 1% FOR 7 SECONDS 2/WK FOR 11.5 WK); 33%, 27%, 18%, not significant (Carcinogen: N-METHYL-N-NITROSOUREA, 684-93-5, Dose [Inhibitor]: 240 MG/KG OF DIET DAILY STARTING 5 D AFTER FINAL CARCINOGEN TREATMENT AND CONTINUING THROUGH END OF STUDY (STUDY DURATIO, Species: RAT, Strain/Sex: F344/MALE, Target Tissue: Type of Lesion: COLON: INVASIVE TUBULOPAPILLARY ADENOCARCINOMA, Dose [Carcinogen]: 0.5 MG 2/WK FOR 8 WK); 80%, 90%, -13%, not significant (Carcinogen: N-METHYL-N-NITROSOUREA, 684-93-5, Dose [Inhibitor]: 240 MG/KG OF DIET DAILY STARTING 5 D AFTER FINAL CARCINOGEN TREATMENT AND CONTINUING THROUGH END OF STUDY (STUDY DURATIO, Species: RAT, Strain/Sex: F344/MALE, Target Tissue: Type of Lesion: COLON: INVASIVE TUBULOPAPILLARY ADENOCARCINOMA, Dose [Carcinogen]: 1 MG 2/WK FOR 8 WK); 95%, 100%, -5%, not significant (Carcinogen: N-METHYL-N-NITROSOUREA, 684-93-5, Dose [Inhibitor]: 240 MG/KG OF DIET DAILY STARTING 5 D AFTER FINAL CARCINOGEN TREATMENT AND CONTINUING THROUGH END OF STUDY (STUDY DURATIO, Species: RAT, Strain/Sex: F344/MALE, Target Tissue: Type of Lesion: COLON: INVASIVE TUBULOPAPILLARY ADENOCARCINOMA, Dose [Carcinogen]: 2 MG 2/WK FOR 8 WK); 4/20 (20%), 10/15 (67%), -235%, p<0.05 (Carcinogen: N-NITROBIS(2-OXOPROPYL)AMINE, 60559-38-4, Dose [Inhibitor]: 0.4 MMOL/KG/D IN DIET STARTING 1 WK AFTER CARCINOGEN TREATMENT AND CONTINUING THROUGH THE END OF THE STUDY (STUDY DURATI, Species: HAMSTER, Strain/Sex: SYRIAN/FEMALE, Target Tissue: Type of Lesion: LIVER: BENIGN TUMOR, Dose [Carcinogen]: 40 MG/KG BW ONCE). Besides, the “tumour outcome (control, treated, inhibition, significance)” value is 12/20 (60%), 7/14 (50%), 17%, not significant (Carcinogen: N-NITROBIS(2-OXOPROPYL)AMINE, 60559-38-4, Dose [Inhibitor]: 0.4 MMOL/KG/D IN DIET STARTING 1 WK AFTER CARCINOGEN TREATMENT AND CONTINUING THROUGH THE END OF THE STUDY (STUDY DURATI, Species: HAMSTER, Strain/Sex: SYRIAN/FEMALE, Target Tissue: Type of Lesion: PANCREAS: DUCTULAR ADENOMA, Dose [Carcinogen]: 40 MG/KG BW ONCE); 6/20 (30%), 9/14 (64%), -113%, not significant (Carcinogen: N-NITROBIS(2-OXOPROPYL)AMINE, 60559-38-4, Dose [Inhibitor]: 0.4 MMOL/KG/D IN DIET STARTING 1 WK AFTER CARCINOGEN TREATMENT AND CONTINUING THROUGH THE END OF THE STUDY (STUDY DURATI, Species: HAMSTER, Strain/Sex: SYRIAN/FEMALE, Target Tissue: Type of Lesion: PANCREAS: DUCTULAR CARCINOMA, Dose [Carcinogen]: 40 MG/KG BW ONCE); 5/24 (21%), 9/24 (38%), -81%, not significant (Carcinogen: N-NITROBIS(2-OXOPROPYL)AMINE, 60559-38-4, Dose [Inhibitor]: 0.4 MMOL/KG/D IN DIET STARTING 1 WK AFTER CARCINOGEN TREATMENT AND CONTINUING THROUGH THE END OF THE STUDY (STUDY DURATI, Species: HAMSTER, Strain/Sex: SYRIAN/MALE, Target Tissue: Type of Lesion: PANCREAS: DUCTULAR CARCINOMA, Dose [Carcinogen]: 40 MG/KG BW ONCE); 4/20 (20%), 10/15 (67%), -235%, p<0.05 (Carcinogen: N-NITROBIS(2-OXOPROPYL)AMINE, 60559-38-4, Dose [Inhibitor]: 0.4 OR 0.8 MMOL/KG DIET DAILY STARTING 1 WK AFTER CARCINOGEN TREATMENT AND CONTINUING THROUGH THE END OF THE STUDY (STUD, Species: HAMSTER, Strain/Sex: SYRIAN/FEMALE, Target Tissue: Type of Lesion: LIVER: BENIGN TUMOR, Dose [Carcinogen]: 40 MG/KG BW ONCE); 5/23 (22%), 9/23 (39%), -77%, not significant (Carcinogen: N-NITROBIS(2-OXOPROPYL)AMINE, 60559-38-4, Dose [Inhibitor]: 0.4 OR 0.8 MMOL/KG DIET DAILY STARTING 1 WK AFTER CARCINOGEN TREATMENT AND CONTINUING THROUGH THE END OF THE STUDY (STUD, Species: HAMSTER, Strain/Sex: SYRIAN/FEMALE, Target Tissue: Type of Lesion: PANCREAS: DUCTULAR ADENOMA, Dose [Carcinogen]: 10 MG/KG BW ONCE).
